From patent US4100346A, “Certain 7(o-amino-methyl- or methylaminomethylphenyl- or cyclohexadienyl- or thienylacetamide)-3[1-carboxymethyl-(or ethyl- or propyl-)-tetrazol-5-ylthiomethyl]-3-cephem-4-carboxylic acids” (Bristol-Myers Company, priority 1976, dated 1978)
In brackets after ≈: the same amount, converted by molar mass. Read-outs that look alike come from different tables or passages of the source.

Assays:
[1] = Recovery in urine after intramuscular injection; details: rat, im, 10 mg/kg
Arizona hinshawii = experiment: Growth inhibitory activity, antibiotic dilution technique; details: Salmonella enterica, read-out: Minimum inhibitory concentration
Serratia marcescens = experiment: as above; details: read-out: Minimum inhibitory concentration
Klebsiella pneumoniae [2] = experiment: Effect of inoculum size on susceptibility of Enterobacteriaceae
Proteus rettgeri [3] = experiment: as above; details: Providencia rettgeri
Alcaligenes sp. = experiment: Growth inhibitory activity, antibiotic dilution technique
Proteus mirabilis = experiment: Minimum growth inhibitory and bactericidal concentrations for Enterobacteriaceae; format: cell-based; details: for MBC: read-out: MBC, minimum bactericidal concentration; for MIC: read-out: MIC, Minimum growth inhibitory concentration
From the text: (§1) Miscellaneous. Methods for determining bactericidal activity and susceptibility to cell-free β-lactamase were those previously used; Leitner et al., BL-S640, A Cephalosporin With a Broad Spectrum of Antibacterial Activity: Properties in vitro, Antimicrob. Agents Chemother. 7:298-305 (1975).
(§2) *MIC, Minimum growth inhibitory concentration; MBC, minimum bactericidal
(§3) concentration; expressed as micrograms per milliliter. The inoculum was […]

Proteus vulgaris = experiment: as above; format: cell-based; details: Proteus vulgaris, inoculum 10^4 cells; for MBC: read-out: MBC, minimum bactericidal concentration; for MIC: read-out: MIC, Minimum growth inhibitory concentration
From the text: as §1, §2, §3

Enterobacter cloacae = experiment: as above; format: cell-based; details: for MBC: read-out: MBC, minimum bactericidal concentration; for MIC: read-out: MIC, Minimum growth inhibitory concentration
From the text: as §1, §2, §3

Proteus rettgeri [4] = experiment: as above; format: cell-based; details: Providencia rettgeri, inoculum 10^4 cells; for MBC: read-out: MBC, minimum bactericidal concentration; for MIC: read-out: MIC, Minimum growth inhibitory concentration
From the text: as §1, §2, §3

Klebsiella pneumoniae [5] = experiment: as above; format: cell-based; details: for MBC: read-out: MBC, minimum bactericidal concentration; for MIC: read-out: MIC, Minimum growth inhibitory concentration
From the text: as §1, §2, §3

Enterobacter aerogenes = experiment: as above; format: cell-based; details: Klebsiella aerogenes, inoculum 10^4 cells; for MBC: read-out: MBC, minimum bactericidal concentration; for MIC: read-out: MIC, Minimum growth inhibitory concentration
From the text: as §1, §2, §3

Escherichia coli = experiment: as above; format: cell-based; details: for MBC: read-out: MBC, minimum bactericidal concentration; for MIC: read-out: MIC, Minimum growth inhibitory concentration
From the text: as §1, §2, §3

Providencia stuartii = experiment: Growth inhibitory activity, antibiotic dilution technique
[6] = Proteus mirabilis strain 1, inoculum 10^4 cells
[7] = Proteus mirabilis strain 2, inoculum 10^4 cells
[8] = Proteus mirabilis strain 3, inoculum 10^4 cells
[9] = Proteus mirabilis strain 4, inoculum 10^4 cells
[10] = Proteus mirabilis strain 5, inoculum 10^4 cells
[11] = Enterobacter cloacae strain 3, inoculum 10^4 cells
[12] = Enterobacter cloacae strain 4, inoculum 10^4 cells
[13] = Enterobacter cloacae strain 8, inoculum 10^4 cells
[14] = Klebsiella pneumoniae strain 1, inoculum 10^4 cells
[15] = Klebsiella pneumoniae strain 2, inoculum 10^4 cells
[16] = Klebsiella pneumoniae strain 3, inoculum 10^4 cells
[17] = Klebsiella pneumoniae strain 4, inoculum 10^4 cells
[18] = Klebsiella pneumoniae strain 5, inoculum 10^4 cells
[19] = Klebsiella pneumoniae strain 6, inoculum 10^4 cells
[20] = Enterobacter aerogenes strain 1
[21] = Enterobacter aerogenes strain 2
[22] = Enterobacter aerogenes strain 3
[23] = Escherichia coli strain 1, inoculum 10^4 cells
[24] = Escherichia coli strain 2, inoculum 10^4 cells
[25] = Escherichia coli strain 3, inoculum 10^4 cells
[26] = Escherichia coli strain 4, inoculum 10^4 cells
[27] = Escherichia coli strain 5, inoculum 10^4 cells
[28] = Escherichia coli strain 6, inoculum 10^4 cells

In the case of `O=C(Cc1cccs1)N[C@@H]1C(=O)N2C(C(=O)[O-])=C(C[n+]3ccccc3)CS[C@H]12` [Cephaloridine], the dose excreted at 24 h [1] is reported as 59%, the MIC (Arizona hinshawii) is reported as 2 µg/mL (≈ 4.81 µM) and the MIC (Serratia marcescens) is reported as greater than 125 µg/mL. The MIC (Klebsiella pneumoniae [2]; read-out: Minimum Inhibitory Concentration, Klebsiella pneumoniae strain 1, A, Inoculum of 10^2 organisms) was 2 µg/mL (≈ 4.81 µM), the MIC (Klebsiella pneumoniae [2]; read-out: Minimum Inhibitory Concentration, Klebsiella pneumoniae strain 1, B, Inoculum of 10^6 organisms) was 4 µg/mL (≈ 9.63 µM) and the MIC (Klebsiella pneumoniae [2]; read-out: Minimum Inhibitory Concentration, Klebsiella pneumoniae strain 2, A, Inoculum of 10^2 organisms) was 2 µg/mL (≈ 4.81 µM). It also gave an MIC (Klebsiella pneumoniae [2]; read-out: Minimum Inhibitory Concentration, Klebsiella pneumoniae strain 2, B, Inoculum of 10^6 organisms) of 8 µg/mL (≈ 19.3 µM), an MIC (Klebsiella pneumoniae [2]; read-out: Minimum Inhibitory Concentration, Klebsiella pneumoniae strain 3, A, Inoculum of 10^2 organisms) of 2 µg/mL (≈ 4.81 µM) and an MIC (Klebsiella pneumoniae [2]; read-out: Minimum Inhibitory Concentration, Klebsiella pneumoniae strain 3, B, Inoculum of 10^6 organisms) of 16 µg/mL (≈ 38.5 µM). It also gave an MIC (Klebsiella pneumoniae [2]; read-out: Minimum Inhibitory Concentration, Klebsiella pneumoniae strain 4, A, Inoculum of 10^2 organisms) of 2 µg/mL (≈ 4.81 µM), an MIC (Klebsiella pneumoniae [2]; read-out: Minimum Inhibitory Concentration, Klebsiella pneumoniae strain 4, B, Inoculum of 10^6 organisms) of 8 µg/mL (≈ 19.3 µM) and an MIC (Klebsiella pneumoniae [2]; read-out: Minimum Inhibitory Concentration, Klebsiella pneumoniae strain 5, A, Inoculum of 10^2 organisms) of 2 µg/mL (≈ 4.81 µM). For the same compound, the MIC (Klebsiella pneumoniae [2]; read-out: Minimum Inhibitory Concentration, Klebsiella pneumoniae strain 5, B, Inoculum of 10^6 organisms) was 16 µg/mL (≈ 38.5 µM), the MIC (Klebsiella pneumoniae [2]; read-out: Minimum Inhibitory Concentration, Klebsiella pneumoniae strain 6, A, Inoculum of 10^2 organisms) was 2 µg/mL (≈ 4.81 µM) and the MIC (Klebsiella pneumoniae [2]; read-out: Minimum Inhibitory Concentration, Klebsiella pneumoniae strain 6, B, Inoculum of 10^6 organisms) was 16 µg/mL (≈ 38.5 µM). It also gave an MIC (Proteus rettgeri [3]; read-out: Minimum Inhibitory Concentration, Proteus rettgeri strain 1, A, Inoculum of 10^2 organisms) of 4 µg/mL (≈ 9.63 µM), an MIC (Proteus rettgeri [3]; read-out: Minimum Inhibitory Concentration, Proteus rettgeri strain 1, B, Inoculum of 10^6 organisms) of 250 µg/mL (≈ 602 µM) and an MIC (Proteus rettgeri [3]; read-out: Minimum Inhibitory Concentration, Proteus rettgeri strain 2, A, Inoculum of 10^2 organisms) of 0.25 µg/mL (≈ 0.602 µM). It also gave an MIC (Proteus rettgeri [3]; read-out: Minimum Inhibitory Concentration, Proteus rettgeri strain 2, B, Inoculum of 10^6 organisms) greater than 250 µg/mL, an MIC (Proteus rettgeri [3]; read-out: Minimum Inhibitory Concentration, Proteus rettgeri strain 3, A, Inoculum of 10^2 organisms) of 16 µg/mL (≈ 38.5 µM) and an MIC (Proteus rettgeri [3]; read-out: Minimum Inhibitory Concentration, Proteus rettgeri strain 3, B, Inoculum of 10^6 organisms) greater than 250 µg/mL. For the same compound, the MIC (Alcaligenes sp.; read-out: Minimum inhibitory concentration, Alcaligenes sp., 2 strains, geometric mean when applicable) was greater than 125 µg/mL, the MIC (Alcaligenes sp.; read-out: Minimum inhibitory concentration, Alcaligenes sp., 4 strains, geometric mean when applicable) was greater than 125 µg/mL and the MIC (Alcaligenes sp.; read-out: Minimum inhibitory concentration, Alcaligenes sp., 5 strains, geometric mean when applicable) was 6.1 µg/mL (≈ 14.7 µM). For the same compound, the MBC (Proteus mirabilis; [6]) was 16 µg/mL (≈ 38.5 µM), the MIC (Proteus mirabilis; [6]) was 8 µg/mL (≈ 19.3 µM) and the MBC (Proteus mirabilis; [7]) was 8 µg/mL (≈ 19.3 µM). For the same compound, the MIC (Proteus mirabilis; [7]) was 8 µg/mL (≈ 19.3 µM), the MBC (Proteus mirabilis; [8]) was 8 µg/mL (≈ 19.3 µM) and the MIC (Proteus mirabilis; [8]) was 8 µg/mL (≈ 19.3 µM). The MBC (Proteus mirabilis; [9]) was 8 µg/mL (≈ 19.3 µM), the MIC (Proteus mirabilis; [9]) was 8 µg/mL (≈ 19.3 µM) and the MBC (Proteus mirabilis; [10]) was 8 µg/mL (≈ 19.3 µM). It also gave an MIC (Proteus mirabilis; [10]) of 4 µg/mL (≈ 9.63 µM), an MBC (Proteus vulgaris; Proteus vulgaris strain 1) of 8 µg/mL (≈ 19.3 µM) and an MIC (Proteus vulgaris; Proteus vulgaris strain 1) of 8 µg/mL (≈ 19.3 µM). It also gave an MBC (Proteus vulgaris; Proteus vulgaris strain 2) of 16 µg/mL (≈ 38.5 µM), an MIC (Proteus vulgaris; Proteus vulgaris strain 2) of 8 µg/mL (≈ 19.3 µM) and an MBC (Proteus vulgaris; Proteus vulgaris strain 4) of 16 µg/mL (≈ 38.5 µM). The MIC (Proteus vulgaris; Proteus vulgaris strain 4) was 8 µg/mL (≈ 19.3 µM), the MBC (Enterobacter cloacae; [11]) was 16 µg/mL (≈ 38.5 µM) and the MIC (Enterobacter cloacae; [11]) was 16 µg/mL (≈ 38.5 µM). It also gave an MBC (Enterobacter cloacae; [12]) greater than 250 µg/mL, an MIC (Enterobacter cloacae; [12]) greater than 250 µg/mL and an MBC (Enterobacter cloacae; [13]) greater than 250 µg/mL. It also gave an MIC (Enterobacter cloacae; [13]) greater than 250 µg/mL, an MBC (Proteus rettgeri [4]; Proteus rettgeri strain 2) of 0.5 µg/mL (≈ 1.2 µM) and an MIC (Proteus rettgeri [4]; Proteus rettgeri strain 2) of 0.5 µg/mL (≈ 1.2 µM). For the same compound, the MBC (Proteus rettgeri [4]; Proteus rettgeri strain 3) was greater than 250 µg/mL, the MIC (Proteus rettgeri [4]; Proteus rettgeri strain 3) was 32 µg/mL (≈ 77 µM) and the MBC (Klebsiella pneumoniae [5]; [14]) was 4 µg/mL (≈ 9.63 µM). It also gave an MIC (Klebsiella pneumoniae [5]; [14]) of 2 µg/mL (≈ 4.81 µM), an MBC (Klebsiella pneumoniae [5]; [15]) of 4 µg/mL (≈ 9.63 µM) and an MIC (Klebsiella pneumoniae [5]; [15]) of 4 µg/mL (≈ 9.63 µM). It also gave an MBC (Klebsiella pneumoniae [5]; [16]) of 2 µg/mL (≈ 4.81 µM), an MIC (Klebsiella pneumoniae [5]; [16]) of 2 µg/mL (≈ 4.81 µM) and an MBC (Klebsiella pneumoniae [5]; [17]) of 4 µg/mL (≈ 9.63 µM). For the same compound, the MIC (Klebsiella pneumoniae [5]; [17]) was 4 µg/mL (≈ 9.63 µM), the MBC (Klebsiella pneumoniae [5]; [18]) was 8 µg/mL (≈ 19.3 µM) and the MIC (Klebsiella pneumoniae [5]; [18]) was 8 µg/mL (≈ 19.3 µM). For the same compound, the MBC (Klebsiella pneumoniae [5]; [19]) was 2 µg/mL (≈ 4.81 µM), the MIC (Klebsiella pneumoniae [5]; [19]) was 2 µg/mL (≈ 4.81 µM) and the MBC (Enterobacter aerogenes; [20]) was greater than 250 µg/mL. It also gave an MIC (Enterobacter aerogenes; [20]) greater than 250 µg/mL, an MBC (Enterobacter aerogenes; [21]) greater than 250 µg/mL and an MIC (Enterobacter aerogenes; [21]) of 250 µg/mL (≈ 602 µM). It also gave an MBC (Enterobacter aerogenes; [22]) of 250 µg/mL (≈ 602 µM), an MIC (Enterobacter aerogenes; [22]) of 250 µg/mL (≈ 602 µM) and an MBC (Escherichia coli; [23]) of 4 µg/mL (≈ 9.63 µM). For the same compound, the MIC (Escherichia coli; [23]) was 4 µg/mL (≈ 9.63 µM), the MBC (Escherichia coli; [24]) was 16 µg/mL (≈ 38.5 µM) and the MIC (Escherichia coli; [24]) was 16 µg/mL (≈ 38.5 µM). For the same compound, the MBC (Escherichia coli; [25]) was 2 µg/mL (≈ 4.81 µM), the MIC (Escherichia coli; [25]) was 2 µg/mL (≈ 4.81 µM) and the MBC (Escherichia coli; [26]) was 4 µg/mL (≈ 9.63 µM). The MIC (Escherichia coli; [26]) was 4 µg/mL (≈ 9.63 µM), the MBC (Escherichia coli; [27]) was 4 µg/mL (≈ 9.63 µM) and the MIC (Escherichia coli; [27]) was 4 µg/mL (≈ 9.63 µM). The MBC (Escherichia coli; [28]) was 8 µg/mL (≈ 19.3 µM), the MIC (Escherichia coli; [28]) was 4 µg/mL (≈ 9.63 µM) and the “percent of strains inhibited” value (Providencia stuartii) was “negligible”.
